Measured values published in article PMC12454493, “Insight on novel sulfamoylphenyl pyrazole derivatives as anticancer carbonic anhydrase inhibitors” (Molecular Diversity, 2024).

Key:
hCA XII = hCA XII (Homo sapiens, UniProt O43570); assay: CA inhibitory activity, spectrophotometric p-NPA assay; format: biochemical; details: p-NPA substrate, pH 7.5, 25 °C, triplicate; read-out: IC50 (µM) ± SD hCA XII
RPMI-8226 = assay: NCI-60 one-dose SRB screen (Leukemia); format: cell-based; details: Homo sapiens, single dose 10 µM, 48 h, read-out: Growth inhibition percent (GI %)
MOLT-4 = assay: NCI-60 one-dose SRB screen (Leukemia); format: cell-based; details: Homo sapiens, single dose 10 µM, 48 h, read-out: Growth inhibition percent (GI %)
SR = assay: NCI-60 one-dose SRB screen (Leukemia); format: cell-based; details: Homo sapiens, single dose 10 µM, 48 h, read-out: Growth inhibition percent (GI %)
K-562 = assay: NCI-60 one-dose SRB screen (Leukemia); format: cell-based; details: Homo sapiens, K562, single dose 10 µM, 48 h, read-out: Growth inhibition percent (GI %)
CCRF-CEM = assay: NCI-60 one-dose SRB screen (Leukemia); format: cell-based; details: Homo sapiens, single dose 10 µM, 48 h, read-out: Growth inhibition percent (GI %)
HL-60(TB) = assay: NCI-60 one-dose SRB screen (Leukemia); format: cell-based; details: Homo sapiens, single dose 10 µM, 48 h, read-out: Growth inhibition percent (GI %)
SK-MEL-5 = assay: NCI-60 one-dose SRB screen (Melanoma); format: cell-based; details: Homo sapiens, single dose 10 µM, 48 h, read-out: Growth inhibition percent (GI %)
UACC-257 = assay: NCI-60 one-dose SRB screen (Melanoma); format: cell-based; details: Homo sapiens, single dose 10 µM, 48 h, read-out: Growth inhibition percent (GI %)
LOX IMVI = assay: NCI-60 one-dose SRB screen (Melanoma); format: cell-based; details: Homo sapiens, single dose 10 µM, 48 h, read-out: Growth inhibition percent (GI %)
SK-MEL-28 = assay: NCI-60 one-dose SRB screen (Melanoma); format: cell-based; details: Homo sapiens, single dose 10 µM, 48 h, read-out: Growth inhibition percent (GI %)
M14 = assay: NCI-60 one-dose SRB screen (Melanoma); format: cell-based; details: Homo sapiens, single dose 10 µM, 48 h, read-out: Growth inhibition percent (GI %)
MALME-3M = assay: NCI-60 one-dose SRB screen (Melanoma); format: cell-based; details: Homo sapiens, single dose 10 µM, 48 h, read-out: Growth inhibition percent (GI %)
MDA-MB-435 = assay: NCI-60 one-dose SRB screen (Melanoma); format: cell-based; details: Homo sapiens, single dose 10 µM, 48 h, read-out: Growth inhibition percent (GI %)
UACC-62 = assay: NCI-60 one-dose SRB screen (Melanoma); format: cell-based; details: Homo sapiens, single dose 10 µM, 48 h, read-out: Growth inhibition percent (GI %)
SK-MEL-2 = assay: NCI-60 one-dose SRB screen (Melanoma); format: cell-based; details: Homo sapiens, single dose 10 µM, 48 h, read-out: Growth inhibition percent (GI %)
SF-539 = assay: NCI-60 one-dose SRB screen (CNS Cancer); format: cell-based; details: Homo sapiens, single dose 10 µM, 48 h, read-out: Growth inhibition percent (GI %)
SF-295 = assay: NCI-60 one-dose SRB screen (CNS Cancer); format: cell-based; details: Homo sapiens, single dose 10 µM, 48 h, read-out: Growth inhibition percent (GI %)
U251 = assay: NCI-60 one-dose SRB screen (CNS Cancer); format: cell-based; details: Homo sapiens, U-251, single dose 10 µM, 48 h, read-out: Growth inhibition percent (GI %)
SNB-19 = assay: NCI-60 one-dose SRB screen (CNS Cancer); format: cell-based; details: Homo sapiens, single dose 10 µM, 48 h, read-out: Growth inhibition percent (GI %)
SNB-75 = assay: NCI-60 one-dose SRB screen (CNS Cancer); format: cell-based; details: Homo sapiens, single dose 10 µM, 48 h, read-out: Growth inhibition percent (GI %)
SF-268 = assay: NCI-60 one-dose SRB screen (CNS Cancer); format: cell-based; details: Homo sapiens, single dose 10 µM, 48 h, read-out: Growth inhibition percent (GI %)
OVCAR-3 = assay: NCI-60 one-dose SRB screen (Ovarian cancer); format: cell-based; details: Homo sapiens, single dose 10 µM, 48 h, read-out: Growth inhibition percent (GI %)
NCI/ADR-RES = assay: NCI-60 one-dose SRB screen (Ovarian cancer); format: cell-based; details: Homo sapiens, single dose 10 µM, 48 h, read-out: Growth inhibition percent (GI %)
SK-OV-3 = assay: NCI-60 one-dose SRB screen (Ovarian cancer); format: cell-based; details: Homo sapiens, single dose 10 µM, 48 h, read-out: Growth inhibition percent (GI %)
OVCAR-4 = assay: NCI-60 one-dose SRB screen (Ovarian cancer); format: cell-based; details: Homo sapiens, single dose 10 µM, 48 h, read-out: Growth inhibition percent (GI %)
IGROV1 = assay: NCI-60 one-dose SRB screen (Ovarian cancer); format: cell-based; details: Homo sapiens, IGROV-1, single dose 10 µM, 48 h, read-out: Growth inhibition percent (GI %)
OVCAR-8 = assay: NCI-60 one-dose SRB screen (Ovarian cancer); format: cell-based; details: Homo sapiens, single dose 10 µM, 48 h, read-out: Growth inhibition percent (GI %)
OVCAR-5 = assay: NCI-60 one-dose SRB screen (Ovarian cancer); format: cell-based; details: Homo sapiens, single dose 10 µM, 48 h, read-out: Growth inhibition percent (GI %)
NCI-H460 = assay: NCI-60 one-dose SRB screen (Non-Small Cell Lung Cancer); format: cell-based; details: Homo sapiens, single dose 10 µM, 48 h, read-out: Growth inhibition percent (GI %)
NCI-H23 = assay: as above; format: cell-based; details: Homo sapiens, single dose 10 µM, 48 h, read-out: Growth inhibition percent (GI %)
NCI-H322M = assay: as above; format: cell-based; details: Homo sapiens, single dose 10 µM, 48 h, read-out: Growth inhibition percent (GI %)
A549/ATCC = assay: as above; format: cell-based; details: Homo sapiens, single dose 10 µM, 48 h, read-out: Growth inhibition percent (GI %)
NCI-H522 = assay: as above; format: cell-based; details: Homo sapiens, single dose 10 µM, 48 h, read-out: Growth inhibition percent (GI %)
EKVX = assay: as above; format: cell-based; details: Homo sapiens, single dose 10 µM, 48 h, read-out: Growth inhibition percent (GI %)
NCI-H226 = assay: as above; format: cell-based; details: Homo sapiens, single dose 10 µM, 48 h, read-out: Growth inhibition percent (GI %)
HOP-62 = assay: as above; format: cell-based; details: Homo sapiens, single dose 10 µM, 48 h, read-out: Growth inhibition percent (GI %)
COLO 205 = assay: NCI-60 one-dose SRB screen (Colon Cancer); format: cell-based; details: Homo sapiens, single dose 10 µM, 48 h, read-out: Growth inhibition percent (GI %)
HCT-15 = assay: NCI-60 one-dose SRB screen (Colon Cancer); format: cell-based; details: Homo sapiens, single dose 10 µM, 48 h, read-out: Growth inhibition percent (GI %)
HCT-116 = assay: NCI-60 one-dose SRB screen (Colon Cancer); format: cell-based; details: Homo sapiens, single dose 10 µM, 48 h, read-out: Growth inhibition percent (GI %)
KM12 = assay: NCI-60 one-dose SRB screen (Colon Cancer); format: cell-based; details: Homo sapiens, single dose 10 µM, 48 h, read-out: Growth inhibition percent (GI %)
HCC-2998 = assay: NCI-60 one-dose SRB screen (Colon Cancer); format: cell-based; details: Homo sapiens, single dose 10 µM, 48 h, read-out: Growth inhibition percent (GI %)
HT29 = assay: NCI-60 one-dose SRB screen (Colon Cancer); format: cell-based; details: Homo sapiens, HT-29, single dose 10 µM, 48 h, read-out: Growth inhibition percent (GI %)
SW-620 = assay: NCI-60 one-dose SRB screen (Colon Cancer); format: cell-based; details: Homo sapiens, single dose 10 µM, 48 h, read-out: Growth inhibition percent (GI %)

Chain of hCA XII (O43570 25-354): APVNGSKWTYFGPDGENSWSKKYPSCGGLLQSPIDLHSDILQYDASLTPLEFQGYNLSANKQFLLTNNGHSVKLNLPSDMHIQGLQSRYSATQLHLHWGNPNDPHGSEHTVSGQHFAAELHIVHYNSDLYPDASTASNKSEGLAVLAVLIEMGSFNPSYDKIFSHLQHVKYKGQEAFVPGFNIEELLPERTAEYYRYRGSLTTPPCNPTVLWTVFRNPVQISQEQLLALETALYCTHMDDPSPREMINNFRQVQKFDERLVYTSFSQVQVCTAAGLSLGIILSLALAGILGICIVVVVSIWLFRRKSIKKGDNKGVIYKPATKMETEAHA

## NC(=S)NNC(=O)c1cn(-c2ccc(S(N)(=O)=O)cc2)nc1-c1ccc(Br)cc1 [Compound 9d, 2-[3-(4-Bromophenyl)-1-(4-sulfamoylphenyl)-1H-pyrazole-4-carbonyl] hydrazine-1-carbothioamide]
hCA XII
  IC50: 1.42 ± 0.053 µM
RPMI-8226
  inhibition at 10 µM: < 5%
MOLT-4
  inhibition at 10 µM: < 5%
SR
  inhibition at 10 µM: 6.97%
K-562
  inhibition at 10 µM: < 5%
CCRF-CEM
  inhibition at 10 µM: < 5%
HL-60(TB)
  inhibition at 10 µM: < 5%
SK-MEL-5
  inhibition at 10 µM: < 5%
UACC-257
  inhibition at 10 µM: < 5%
LOX IMVI
  inhibition at 10 µM: < 5%
SK-MEL-28
  inhibition at 10 µM: < 5%
M14
  inhibition at 10 µM: < 5%
MALME-3M
  inhibition at 10 µM: 10.9%
MDA-MB-435
  inhibition at 10 µM: < 5%
UACC-62
  inhibition at 10 µM: < 5%
SK-MEL-2
  inhibition at 10 µM: < 5%
SF-539
  inhibition at 10 µM: 6.59%
SF-295
  inhibition at 10 µM: < 5%
U251
  inhibition at 10 µM: < 5%
SNB-19
  inhibition at 10 µM: < 5%
SNB-75
  inhibition at 10 µM: 12.1%
SF-268
  inhibition at 10 µM: < 5%
OVCAR-3
  inhibition at 10 µM: < 5%
NCI/ADR-RES
  inhibition at 10 µM: < 5%
SK-OV-3
  inhibition at 10 µM: < 5%
OVCAR-4
  inhibition at 10 µM: < 5%
IGROV1
  inhibition at 10 µM: 20.2%
OVCAR-8
  inhibition at 10 µM: < 5%
OVCAR-5
  inhibition at 10 µM: < 5%
other
  melting point: 238 to 241 °C
NCI-H460
  inhibition at 10 µM: < 5%
NCI-H23
  inhibition at 10 µM: < 5%
NCI-H322M
  inhibition at 10 µM: 14.9%
A549/ATCC
  inhibition at 10 µM: < 5%
NCI-H522
  inhibition at 10 µM: 8.15%
EKVX
  inhibition at 10 µM: < 5%
NCI-H226
  inhibition at 10 µM: < 5%
HOP-62
  inhibition at 10 µM: < 5%
COLO 205
  inhibition at 10 µM: < 5%
HCT-15
  inhibition at 10 µM: < 5%
HCT-116
  inhibition at 10 µM: < 5%
KM12
  inhibition at 10 µM: < 5%
HCC-2998
  inhibition at 10 µM: < 5%
HT29
  inhibition at 10 µM: < 5%
SW-620
  inhibition at 10 µM: < 5%
